Laboratory results as given in US12221453B2, “Substituted pyrazolo[5′,1′:2,3]pyrimido[5,4-b][1,4]oxazines as TYK2 inhibitors” (TAKEDA PHARMACEUTICAL COMPANY LIMITED, priority 2018, dated 2025).

The compounds below were run on IL-12 induced STAT4 phosphorylation mediated by TYK2/JAK2 (assay: IL-12 induced pSTAT4 in human PBMC). Settings: 1 hr compound, 1.7 ng/mL IL-12 for 30 minutes.
Format: cell-based
Protocol: Human PBMC were isolated from buffy coat and are stored frozen for assays as needed. […] 15 μL of compound or DMSO was added to the well at the desired concentrations and incubated at 1 hr at 37° C. 15 μL of stimulus (final concentration of 1.7 ng/mL IL-12) was added for 30 minutes prior to pSTAT4 and total STAT4 analysis using cell lysates prepared and analyzed by MSD reagents as per manufacturer protocol. The final DMSO concentration of compound in the assay was 0.1%. The IL-12 induced pSTAT4 assay evaluates the inhibition of IL-12 induced STAT4 phosphorlyation mediated by TYK2/JAK2 ([…] complex).

Row | IC50 | Structure (SMILES)
1 | < 0.1 µM | CNc1cc(Nc2cccn([C@H]3C[C@H](F)C3)c2=O)nc2c(C(=O)N[C@H]3CC[C@H](O)C3)cnn12 [Compound I-436]
2 | < 0.1 µM | CNc1ccc(-c2cc(NC)n3ncc(C(=O)N[C@@H]4C[C@@H]4F)c3n2)n2ccnc12 [Compound I-479]
3 | < 0.1 µM | CNc1ccc(-c2cc(NC)n3ncc(C(=O)N[C@H]4CC[C@@H]4F)c3n2)n2ccnc12 [Compound I-481]
4 | < 0.1 µM | CNc1ccc(-c2cc(NC)n3ncc(C(=O)NC4CC[C@H]4F)c3n2)n2ccnc12 (stereo partly drawn) [Compound I-483]
5 | < 0.1 µM | CNc1ccc(-c2cc(NC)n3ncc(C(=O)NC4CC[C@H]4O)c3n2)n2ccnc12 (stereo partly drawn) [Compound I-484]
6 | < 0.1 µM | CNc1ccc(-c2cc(NC)n3ncc(C(=O)N[C@H]4CC[C@H]4O)c3n2)n2ccnc12 [Compound I-485]
7 | < 0.1 µM | CNc1ccc(-c2cc(NC)n3ncc(C(=O)NC4CC[C@@H]4OC)c3n2)n2ccnc12 (stereo partly drawn) [Compound I-488]
8 | < 0.1 µM | CNc1ccc(-c2cc(NC)n3ncc(C(=O)N[C@@H]4CC[C@H]4OC)c3n2)n2ccnc12 [Compound I-490]
9 | < 0.1 µM | CNc1cc(-c2cn([C@H]3C[C@@H](O)C3)c3ncccc23)nc2c(C(=O)NC3CC3)cnn12 [Compound I-495]
10 | < 0.1 µM | CNc1cc(-c2cn(C3COC3)c3ncccc23)nc2c(C(=O)NC3CC[C@@H]3F)cnn12 (stereo partly drawn) [Compound I-507]
11 | < 0.1 µM | CNc1cc(-c2cn(C3COC3)c3ncccc23)nc2c(C(=O)N[C@H]3CC[C@@H]3F)cnn12 [Compound I-508]
12 | < 0.1 µM | CNc1cc(-c2cn([C@H]3C[C@@H](O)C3)c3ncccc23)nc2c(C(=O)NC3CC[C@@H]3F)cnn12 (stereo partly drawn) [Compound I-510]
13 | < 0.1 µM | CNc1cc(-c2cn([C@H]3C[C@@H](O)C3)c3ncccc23)nc2c(C(=O)N[C@H]3CC[C@@H]3F)cnn12 [Compound I-511]
14 | < 0.1 µM | CNc1cc(-c2cn(C3CN(C)C3)c3ncccc23)nc2c(C(=O)NC3CC[C@@H]3F)cnn12 (stereo partly drawn) [Compound I-513]
15 | < 0.1 µM | CNc1cc(-c2cn(C3CN(C)C3)c3ncccc23)nc2c(C(=O)N[C@H]3CC[C@@H]3F)cnn12 [Compound I-514]
16 | < 0.1 µM | CNc1cc(-c2cn([C@H]3COC[C@@H]3OC)c3ncccc23)nc2c(C(=O)N[C@H]3CC[C@@H]3F)cnn12 [Compound I-523]
17 | < 0.1 µM | CNc1cc(-c2cn([C@H]3COC[C@@H]3OC)c3ncccc23)nc2c(C(=O)NC3CC[C@H]3F)cnn12 (stereo partly drawn) [Compound I-528]
18 | < 0.1 µM | CNc1cc(-c2cn([C@H]3COC[C@@H]3OC)c3ncccc23)nc2c(C(=O)N[C@H]3CC[C@H]3F)cnn12 [Compound I-529]
19 | < 0.1 µM | CNc1cc(-c2cn([C@H]3COC[C@@H]3OC)c3ncccc23)nc2c(C(=O)N[C@@H]3CC[C@@H]3F)cnn12 [Compound I-530]
20 | < 0.1 µM | CNc1cc(-c2cn([C@@H]3COC[C@H]3OC)c3ncccc23)nc2c(C(=O)NC3CC[C@H]3F)cnn12 (stereo partly drawn) [Compound I-531]
21 | < 0.1 µM | CNc1cc(-c2cn([C@@H]3CCOC[C@H]3O)c3ncccc23)nc2c(C(=O)N[C@H]3CC[C@@H]3F)cnn12 [Compound I-538]

Row | IC50 | Structure (SMILES)
22 | < 0.1 µM | CNc1cc(-c2cn([C@H]3CCOC[C@H]3OC)c3ncccc23)nc2c(C(=O)NC3CC[C@@H]3F)cnn12 (stereo partly drawn) [Compound I-546]
23 | < 0.1 µM | CNc1cc(-c2cn([C@@H]3CC3(F)F)c3ncccc23)nc2c(C(=O)NC3CC[C@H]3O)cnn12 (stereo partly drawn) [Compound I-548]
24 | < 0.1 µM | CNc1cc(-c2cn([C@@H]3CC3(F)F)c3ncccc23)nc2c(C(=O)N[C@H]3CC[C@H]3O)cnn12 [Compound I-549]
25 | < 0.1 µM | CNc1cc(-c2cn([C@H]3CC3(F)F)c3ncccc23)nc2c(C(=O)N[C@H]3CC[C@H]3O)cnn12 [Compound I-552]
26 | < 0.1 µM | CNc1cc(-c2cn(C3COC3)c3ncccc23)nc2c(C(=O)N[C@H]3CC[C@H]3O)cnn12 [Compound I-555]
27 | < 0.1 µM | CNc1cc(-c2cn(C3COC3)c3ncccc23)nc2c(C(=O)N[C@H]3CC[C@@H]3O)cnn12 [Compound I-558]
28 | < 0.1 µM | CNc1cc(-c2cn([C@@H]3COC[C@@H]3F)c3ncccc23)nc2c(C(=O)N[C@H]3CC[C@H]3O)cnn12 [Compound I-571]
29 | < 0.1 µM | CNc1cc(-c2cn([C@H]3COC[C@H]3F)c3ncccc23)nc2c(C(=O)NC3CC[C@H]3O)cnn12 (stereo partly drawn) [Compound I-573]
30 | < 0.1 µM | CNc1cc(-c2cn([C@H]3COC[C@H]3F)c3ncccc23)nc2c(C(=O)N[C@H]3CC[C@H]3O)cnn12 [Compound I-574]
31 | < 0.1 µM | CNc1cc(-c2cn([C@H]3C[C@@H](O)C3)c3ncccc23)nc2c(C(=O)N[C@H]3CC[C@@H]3OC)cnn12 [Compound I-606]
32 | < 0.1 µM | CNc1cc(-c2cn(C3CN(C)C3)c3ncccc23)nc2c(C(=O)NC3CC[C@@H]3OC)cnn12 (stereo partly drawn) [Compound I-608]
33 | < 0.1 µM | CNc1cc(-c2cn([C@@H]3CCOC3)c3ncccc23)nc2c(C(=O)NC3CC[C@@H]3OC)cnn12 (stereo partly drawn) [Compound I-609]
34 | < 0.1 µM | CNc1cc(-c2cn([C@@H]3CCOC3)c3ncccc23)nc2c(C(=O)N[C@H]3CC[C@@H]3OC)cnn12 [Compound I-610]
35 | < 0.1 µM | CNc1cc(-c2cn([C@H]3CCOC3)c3ncccc23)nc2c(C(=O)NC3CC[C@@H]3OC)cnn12 (stereo partly drawn) [Compound I-612]
36 | < 0.1 µM | CNc1cc(-c2cn([C@H]3CCOC3)c3ncccc23)nc2c(C(=O)N[C@H]3CC[C@@H]3OC)cnn12 [Compound I-613]
37 | < 0.1 µM | CNc1cc(-c2cn([C@@H]3CCN(C)C3)c3ncccc23)nc2c(C(=O)NC3CC[C@@H]3OC)cnn12 (stereo partly drawn) [Compound I-615]
38 | < 0.1 µM | CNc1cc(-c2cn([C@@H]3CCN(C)C3)c3ncccc23)nc2c(C(=O)N[C@H]3CC[C@@H]3OC)cnn12 [Compound I-616]
39 | < 0.1 µM | CNc1cc(-c2cn([C@H]3CCN(C)C3)c3ncccc23)nc2c(C(=O)NC3CC[C@@H]3OC)cnn12 (stereo partly drawn) [Compound I-618]
40 | < 0.1 µM | CNc1cc(-c2cn([C@H]3CCN(C)C3)c3ncccc23)nc2c(C(=O)N[C@H]3CC[C@@H]3OC)cnn12 [Compound I-619]
41 | < 0.1 µM | CNc1cc(-c2cn([C@@H]3COC[C@@H]3F)c3ncccc23)nc2c(C(=O)NC3CC[C@@H]3OC)cnn12 (stereo partly drawn) [Compound I-621]
42 | < 0.1 µM | CNc1cc(-c2cn([C@@H]3COC[C@@H]3F)c3ncccc23)nc2c(C(=O)N[C@H]3CC[C@@H]3OC)cnn12 [Compound I-622]

Row | IC50 | Structure (SMILES)
43 | < 0.1 µM | CNc1cc(-c2cn([C@H]3COC[C@H]3F)c3ncccc23)nc2c(C(=O)N[C@H]3CC[C@@H]3OC)cnn12 [Compound I-625]
44 | < 0.1 µM | CNc1cc(-c2cn([C@@H]3COC[C@H]3O)c3ncccc23)nc2c(C(=O)N[C@@H]3CC[C@H]3OC)cnn12 [Compound I-629]
45 | < 0.1 µM | CNc1cc(-c2cn([C@H]3COC[C@@H]3O)c3ncccc23)nc2c(C(=O)N[C@H]3CC[C@@H]3OC)cnn12 [Compound I-631]
46 | < 0.1 µM | CNc1cc(-c2cn([C@H]3COC[C@@H]3OC)c3ncccc23)nc2c(C(=O)NC3CC[C@@H]3OC)cnn12 (stereo partly drawn) [Compound I-633]
47 | < 0.1 µM | CNc1cc(-c2cn([C@H]3COC[C@@H]3OC)c3ncccc23)nc2c(C(=O)N[C@H]3CC[C@@H]3OC)cnn12 [Compound I-634]
48 | < 0.1 µM | CNc1cc(-c2cn([C@@H]3COC[C@H]3OC)c3ncccc23)nc2c(C(=O)NC3CC[C@@H]3OC)cnn12 (stereo partly drawn) [Compound I-636]
49 | < 0.1 µM | CNc1cc(-c2cn([C@@H]3COC[C@H]3OC)c3ncccc23)nc2c(C(=O)N[C@H]3CC[C@@H]3OC)cnn12 [Compound I-637]
50 | < 0.1 µM | CNc1cc(-c2cn([C@H]3CN(C)C[C@@H]3F)c3ncccc23)nc2c(C(=O)N[C@H]3CC[C@@H]3OC)cnn12 [Compound I-640]
51 | < 0.1 µM | CNc1cc(-c2cn([C@@H]3CN(C)C[C@H]3F)c3ncccc23)nc2c(C(=O)NC3CC[C@@H]3OC)cnn12 (stereo partly drawn) [Compound I-642]
52 | < 0.1 µM | CNc1cc(-c2cn([C@@H]3CN(C)C[C@H]3F)c3ncccc23)nc2c(C(=O)N[C@H]3CC[C@@H]3OC)cnn12 [Compound I-643]
53 | < 0.1 µM | CNc1cc(-c2cn([C@@H]3CN(C)C[C@H]3OC)c3ncccc23)nc2c(C(=O)NC3CC[C@@H]3OC)cnn12 (stereo partly drawn) [Compound I-645]
54 | < 0.1 µM | CNc1cc(-c2cn([C@@H]3CN(C)C[C@H]3OC)c3ncccc23)nc2c(C(=O)N[C@H]3CC[C@@H]3OC)cnn12 [Compound I-646]
55 | < 0.1 µM | CNc1cc(-c2cn([C@H]3CN(C)C[C@@H]3OC)c3ncccc23)nc2c(C(=O)N[C@H]3CC[C@@H]3OC)cnn12 [Compound I-649]
56 | < 0.1 µM | CNc1cc(-c2cn([C@H]3CCOC[C@@H]3F)c3ncccc23)nc2c(C(=O)NC3CC[C@@H]3OC)cnn12 (stereo partly drawn) [Compound I-651]
57 | < 0.1 µM | CNc1cc(-c2cn([C@@H]3CCOC[C@H]3F)c3ncccc23)nc2c(C(=O)NC3CC[C@@H]3OC)cnn12 (stereo partly drawn) [Compound I-652]
58 | < 0.1 µM | CNc1cc(-c2cn([C@H]3CCOC[C@@H]3OC)c3ncccc23)nc2c(C(=O)N[C@H]3CC[C@@H]3OC)cnn12 [Compound I-663]
59 | < 0.1 µM | CNc1cc(-c2cn([C@H]3CCOC[C@H]3OC)c3ncccc23)nc2c(C(=O)N[C@H]3CC[C@@H]3OC)cnn12 [Compound I-666]
60 | < 0.1 µM | CNc1cc(-c2cn([C@@H]3CCOC[C@@H]3OC)c3ncccc23)nc2c(C(=O)NC3CC[C@@H]3OC)cnn12 (stereo partly drawn) [Compound I-668]
61 | < 0.1 µM | CNc1cc(-c2cn([C@@H]3CCOC[C@@H]3OC)c3ncccc23)nc2c(C(=O)N[C@H]3CC[C@@H]3OC)cnn12 [Compound I-669]
62 | < 0.1 µM | CNc1cc(-c2cn([C@H]3CCC4(C3)OCCO4)c3ncccc23)nc2c(C(=O)NC3CC[C@@H]3OC)cnn12 (stereo partly drawn) [Compound I-671]
63 | < 0.1 µM | CNc1cc(-c2cn([C@@H]3CCC4(C3)OCCO4)c3ncccc23)nc2c(C(=O)NC3CC[C@@H]3OC)cnn12 (stereo partly drawn) [Compound I-672]
